ChEMBL document CHEMBL1201862, “PubChem BioAssay data set” (2004)
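In this assay, cells in 96-well plates receive the compound at five concentrations for 48 hours. Endpoints are linearly interpolated between the surrounding concentrations. The concentration for 50% growth inhibition is given as GI50.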 The source made the active and inactive calls. Cut-off read from the data, not from the text of the source: active = GI50 up to about 1.1 µM and inactive = higher.

How the values were obtained:
Experiment in all cases: NCI-60 cell line screen, 48 h
HL-60 = tested on: HL-60
HCC 2998 = tested on: HCC 2998
BT-549 = tested on: BT-549
NCI/ADR-RES = tested on: NCI/ADR-RES
UACC-257 = tested on: UACC-257
OVCAR-5 = tested on: OVCAR-5
SK-MEL-28 = tested on: SK-MEL-28
Malme-3M = tested on: Malme-3M
HCT-116 = tested on: HCT-116
RXF 393 = tested on: RXF 393
SNB-75 = tested on: SNB-75
COLO 205 = tested on: COLO 205
IGROV-1 = tested on: IGROV-1
MCF7 = tested on: MCF7
EKVX = tested on: EKVX
786-0 = tested on: 786-0
NCI-H226 = tested on: NCI-H226
UO-31 = tested on: UO-31
TK-10 = tested on: TK-10
NCI-H460 = tested on: NCI-H460

Measured: GI50

CC(=S)NC=C(C(N)=O)C(N)=O
inactive: HL-60 > 100 µM | HCC 2998 > 100 µM | BT-549 > 100 µM | NCI/ADR-RES > 100 µM | UACC-257 > 100 µM | OVCAR-5 > 100 µM | SK-MEL-28 > 100 µM | Malme-3M > 100 µM | HCT-116 > 100 µM | RXF 393 > 100 µM | SNB-75 > 100 µM | COLO 205 > 100 µM | IGROV-1 > 100 µM | MCF7 > 100 µM | EKVX > 100 µM | 786-0 > 100 µM | NCI-H226 > 100 µM

Cc1cc(NCC2CC/C(=C\C=C\c3ccccc3)C2=O)no1 (stereo not given)
inactive: HL-60 42.7 µM | HCC 2998 > 100 µM | BT-549 > 100 µM | UO-31 51.3 µM | NCI/ADR-RES 40.5 µM | UACC-257 57.8 µM | OVCAR-5 > 100 µM | TK-10 84.9 µM | SK-MEL-28 > 100 µM | Malme-3M > 100 µM | HCT-116 > 100 µM | NCI-H460 > 100 µM | RXF 393 > 100 µM | COLO 205 > 100 µM | IGROV-1 > 100 µM | MCF7 63.4 µM | EKVX > 100 µM | 786-0 > 100 µM | NCI-H226 49.8 µM

C=CC(CBr)CCC(Br)C(C)(C)Br (stereo not given)
inactive: HCC 2998 > 10 µM | BT-549 > 10 µM | UO-31 > 10 µM | NCI/ADR-RES > 10 µM | UACC-257 > 10 µM | OVCAR-5 > 10 µM | TK-10 > 10 µM | SK-MEL-28 > 10 µM | Malme-3M > 10 µM | HCT-116 > 10 µM | NCI-H460 > 10 µM | RXF 393 > 10 µM | SNB-75 > 10 µM | COLO 205 > 10 µM | IGROV-1 > 10 µM | MCF7 > 10 µM | EKVX > 10 µM | 786-0 > 10 µM | NCI-H226 > 10 µM

CN1C/C(=C\c2cccs2)C(=O)/C(=C/c2cccs2)C1
inactive: HCC 2998 19.5 µM | BT-549 21.4 µM | UO-31 18.7 µM | NCI/ADR-RES 22.1 µM | UACC-257 30 µM | OVCAR-5 20.6 µM | TK-10 38.1 µM | SK-MEL-28 52.2 µM | Malme-3M 40.1 µM | HCT-116 14.2 µM | NCI-H460 24.3 µM | RXF 393 20.3 µM | COLO 205 24.4 µM | IGROV-1 18.9 µM | MCF7 15.7 µM | EKVX 19.1 µM | 786-0 17.7 µM | NCI-H226 > 100 µM

CC(C)(C)C(=O)OCC1CCC[N+]2(C)CCCCC12 (stereo not given)
inactive: HCC 2998 > 100 µM | BT-549 > 100 µM | UO-31 > 100 µM | NCI/ADR-RES > 100 µM | UACC-257 > 100 µM | OVCAR-5 > 100 µM | TK-10 > 100 µM | SK-MEL-28 > 100 µM | Malme-3M > 100 µM | HCT-116 > 100 µM | NCI-H460 > 100 µM | RXF 393 > 100 µM | SNB-75 > 100 µM | COLO 205 > 100 µM | IGROV-1 > 100 µM | MCF7 > 100 µM | EKVX > 100 µM | 786-0 > 100 µM | NCI-H226 > 100 µM

O=S1(=O)N=C(NCc2c[nH]c3ccccc23)N(c2ccccc2)c2ccncc21
inactive: HL-60 > 100 µM | HCC 2998 > 100 µM | BT-549 55.1 µM | UO-31 5.25 µM | NCI/ADR-RES > 100 µM | UACC-257 > 100 µM | OVCAR-5 > 100 µM | TK-10 > 100 µM | SK-MEL-28 > 100 µM | Malme-3M > 100 µM | HCT-116 > 100 µM | NCI-H460 > 100 µM | RXF 393 > 100 µM | SNB-75 16.8 µM | COLO 205 > 100 µM | MCF7 > 100 µM | EKVX 64.9 µM | 786-0 53.3 µM | NCI-H226 60.3 µM

COC(=O)C1C(OS(=O)(=O)O)CCC2CN3CCc4c([nH]c5ccccc45)C3CC21 (stereo not given)
inactive: HL-60 > 100 µM | BT-549 > 100 µM | UO-31 > 100 µM | NCI/ADR-RES > 100 µM | UACC-257 > 100 µM | OVCAR-5 > 100 µM | TK-10 > 100 µM | SK-MEL-28 > 100 µM | Malme-3M > 100 µM | HCT-116 > 100 µM | NCI-H460 > 100 µM | RXF 393 > 100 µM | SNB-75 > 100 µM | COLO 205 > 100 µM | IGROV-1 > 100 µM | MCF7 > 100 µM | EKVX > 100 µM | 786-0 > 100 µM | NCI-H226 > 100 µM
